Test results taken from paper PMC5853643, “Bombesin receptor subtype‐3‐expressing neurons regulate energy homeostasis through a novel neuronal pathway in the hypothalamus” (Brain and Behavior, 2017).

Biological target: T1, Bombesin receptor subtype‐3 (BRS‐3) (Rattus norvegicus, UniProt Q8K418)
T1 construct: gene Brs3
T1 sequence (Q8K418 1-399): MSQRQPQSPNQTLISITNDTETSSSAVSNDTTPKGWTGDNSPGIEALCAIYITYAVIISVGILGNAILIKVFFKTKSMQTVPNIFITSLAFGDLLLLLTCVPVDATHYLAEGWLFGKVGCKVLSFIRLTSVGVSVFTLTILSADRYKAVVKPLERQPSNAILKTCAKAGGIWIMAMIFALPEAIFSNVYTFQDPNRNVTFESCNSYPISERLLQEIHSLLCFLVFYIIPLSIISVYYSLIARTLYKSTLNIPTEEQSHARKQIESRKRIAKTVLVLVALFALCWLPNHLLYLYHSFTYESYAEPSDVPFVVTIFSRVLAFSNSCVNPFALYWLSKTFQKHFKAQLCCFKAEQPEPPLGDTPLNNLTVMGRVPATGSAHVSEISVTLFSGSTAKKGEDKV
Assay: agonist-induced Ca2+ mobilization, aequorin bioluminescence assay in CHO-K1 cells overexpressing BRS-3
Assay type: cell-based

Row | EC50 [nM] | SMILES
1 | 130 | COc1ccc2c(c1)C(=O)N(Cc1ccccc1)C(C(=O)NC(C)(C)C)c1ccccc1-2 (racemic) [compound-C, compound‐C]
2 | 100 | COc1ccc2c(c1)C(=O)N(Cc1ccccc1)C(C(=O)NC(C)(C)C)c1ccccc1-2 (racemic) [compound-A, 6‐benzyl‐N‐tert‐butyl‐9‐methoxy‐7‐oxo‐6,7‐dihydro‐5H‐dibenzo[c,e]azepine‐5‐carboxamide]
